Reference: patent US10597388B2, “Pyridazinone herbicides” (FMC CORPORATION, priority 2014, dated 2020)

Columns and labels:
Assay in all cases: Test C greenhouse herbicide test, pre- and postemergence
Type in all cases: in vivo
[1] = system: crabgrass, large (large crabgrass, Digitaria sanguinalis)
Procedure, shortened: (§1)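 Percent-control ratings (0 none, 100 complete) came from visual comparison with controls held alongside in the greenhouse for 13–15 d. Treatments covered soil application at sowing and foliar application to young plants 2–18 cm tall.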

[2] = system: foxtail, giant (giant foxtail, Setaria faberii)
Procedure, shortened: as §1

[3] = system: barnyardgrass (Echinochloa crus-galli)
Procedure, shortened: as §1

[4] = system: waterhemp (common waterhemp, Amaranthus rudis)
Procedure, shortened: as §1

[5] = system: wheat (winter wheat, Triticum aestivum)
Procedure, shortened: as §1

[6] = system: soybean (Glycine max)
Procedure, shortened: as §1

[7] = system: lambsquarters (Chenopodium album)
Procedure, shortened: as §1

[8] = system: galium (catchweed bedstraw, Galium aparine)
Procedure, shortened: as §1

[9] = system: ragweed (common ragweed, Ambrosia elatior)
Procedure, shortened: as §1

[10] = system: johnsongrass (Sorghum halepense)
Procedure, shortened: as §1

[11] = system: nutsedge, yellow (yellow nutsedge, Cyperus esculentus)
Procedure, shortened: as §1

[12] = system: oilseed rape (Brassica napus)
Procedure, shortened: as §1

[13] = Postemergence, 31 g ai/ha, 0 to 100 scale (0 no effect, 100 complete control)
[14] = Postemergence, 125 g ai/ha, scale 0 to 100, 0 is no effect, 100 is complete control
[15] = Postemergence, 250 g ai/ha, scale 0 to 100, 0 no effect, 100 complete control, 13 to 15 d
[16] = Preemergence, 31 g ai/ha, scale 0 to 100, 0 is no effect, 100 is complete control
[17] = Preemergence, 62 g ai/ha, scale 0 to 100, 0 is no effect, 100 is complete control
[18] = Preemergence, 125 g ai/ha, scale 0 to 100, 0 is no effect, 100 is complete control
[19] = Preemergence, 250 g ai/ha, scale 0 to 100, 0 no effect, 100 complete control
[20] = postemergence, 62 g ai/ha, scale 0 to 100, 0 no effect, 100 complete control

Compound: Cc1cc(C)c2ccccc2c1-c1c(O)c(C)nn(C)c1=O [Compound 21]
- Crabgrass, Large plant response rating [1, 13]: 30
- Plant response rating, Crabgrass, Large [1, 14]: 40
- Plant response rating, Crabgrass, Large [1, 15]: 55
- Plant response rating, Crabgrass, Large [1, 16]: 35
- Plant response rating, Crabgrass, Large [1, 17]: 85
- Plant response rating, Crabgrass, Large [1, 18]: 85
- Crabgrass, Large plant response rating [1, 19]: 100
- Crabgrass, Large plant response rating [1, 20]: 35
- Foxtail, Giant plant response rating [2, 13]: 55
- Plant response rating, Foxtail, Giant [2, 14]: 90
- Plant response rating, Foxtail, Giant [2, 15]: 95
- Plant response rating, Foxtail, Giant [2, 16]: 100
- Plant response rating, Foxtail, Giant [2, 17]: 100
- Plant response rating, Foxtail, Giant [2, 18]: 100
- Foxtail, Giant plant response rating [2, 19]: 100
- Foxtail, Giant plant response rating [2, 20]: 80
- Barnyardgrass plant response rating [3, 13]: 35
- Plant response rating, Barnyardgrass [3, 14]: 75
- Plant response rating, Barnyardgrass [3, 15]: 90
- Plant response rating, Barnyardgrass [3, 16]: 80
- Plant response rating, Barnyardgrass [3, 17]: 100
- Plant response rating, Barnyardgrass [3, 18]: 100
- Barnyardgrass plant response rating [3, 19]: 100
- Barnyardgrass plant response rating [3, 20]: 45
- Waterhemp plant response rating [4, 13]: 40
- Plant response rating, Waterhemp [4, 14]: 85
- Plant response rating, Waterhemp [4, 15]: 80
- Plant response rating, Waterhemp [4, 17]: 95
- Plant response rating, Waterhemp [4, 18]: 100
- Waterhemp plant response rating [4, 19]: 100
- Waterhemp plant response rating [4, 20]: 75
- Wheat plant response rating [5, 13]: 0
- Plant response rating, Wheat [5, 14]: 35
- Plant response rating, Wheat [5, 15]: 35
- Plant response rating, Wheat [5, 17]: 5
- Plant response rating, Wheat [5, 18]: 30
- Wheat plant response rating [5, 19]: 40
- Wheat plant response rating [5, 20]: 5
- Soybean plant response rating [6, 13]: 0
- Plant response rating, Soybean [6, 14]: 10
- Plant response rating, Soybean [6, 15]: 20
- Plant response rating, Soybean [6, 17]: 0
- Plant response rating, Soybean [6, 18]: 0
- Soybean plant response rating [6, 19]: 20
- Soybean plant response rating [6, 20]: 0
- Lambsquarters plant response rating [7, 13]: 85
- Plant response rating, Lambsquarters [7, 14]: 95
- Plant response rating, Lambsquarters [7, 15]: 98
- Plant response rating, Lambsquarters [7, 16]: 90
- Plant response rating, Lambsquarters [7, 17]: 98
- Plant response rating, Lambsquarters [7, 18]: 98
- Lambsquarters plant response rating [7, 19]: 100
- Lambsquarters plant response rating [7, 20]: 90
- Galium plant response rating [8, 13]: 98
- Plant response rating, Galium [8, 14]: 100
- Plant response rating, Galium [8, 15]: 100
- Plant response rating, Galium [8, 16]: 98
- Plant response rating, Galium [8, 17]: 98
- Plant response rating, Galium [8, 18]: 98
- Galium plant response rating [8, 19]: 100
- Galium plant response rating [8, 20]: 100
- Ragweed plant response rating [9, 13]: 85
- Plant response rating, Ragweed [9, 14]: 90
- Plant response rating, Ragweed [9, 15]: 95
- Plant response rating, Ragweed [9, 16]: 95
- Plant response rating, Ragweed [9, 17]: 100
- Plant response rating, Ragweed [9, 18]: 100
- Ragweed plant response rating [9, 19]: 100
- Ragweed plant response rating [9, 20]: 90
- Johnsongrass plant response rating [10, 13]: 10
- Plant response rating, Johnsongrass [10, 14]: 20
- Plant response rating, Johnsongrass [10, 15]: 35
- Plant response rating, Johnsongrass [10, 16]: 10
- Plant response rating, Johnsongrass [10, 17]: 10
- Plant response rating, Johnsongrass [10, 18]: 35
- Johnsongrass plant response rating [10, 19]: 50
- Johnsongrass plant response rating [10, 20]: 20
- Nutsedge, Yellow plant response rating [11, 13]: 85
- Plant response rating, Nutsedge, Yellow [11, 14]: 90
- Plant response rating, Nutsedge, Yellow [11, 15]: 90
- Plant response rating, Nutsedge, Yellow [11, 16]: 75
- Plant response rating, Nutsedge, Yellow [11, 17]: 85
- Plant response rating, Nutsedge, Yellow [11, 18]: 85
- Nutsedge, Yellow plant response rating [11, 19]: 85
- Nutsedge, Yellow plant response rating [11, 20]: 90
- Oilseed Rape plant response rating [12, 13]: 65
- Plant response rating, Oilseed Rape [12, 14]: 100
- Plant response rating, Oilseed Rape [12, 15]: 100
- Plant response rating, Oilseed Rape [12, 16]: 90
- Plant response rating, Oilseed Rape [12, 17]: 100
- Plant response rating, Oilseed Rape [12, 18]: 100
- Oilseed Rape plant response rating [12, 19]: 100
- Oilseed Rape plant response rating [12, 20]: 80

Compound: Cc1nn(C)c(=O)c(-c2c(C)sc3ccc(Br)cc23)c1O [Compound 22]
- Crabgrass, Large plant response rating [1, 13]: 0
- Plant response rating, Crabgrass, Large [1, 14]: 5
- Plant response rating, Crabgrass, Large [1, 15]: 5
- Plant response rating, Crabgrass, Large [1, 16]: 0
- Plant response rating, Crabgrass, Large [1, 17]: 0
- Plant response rating, Crabgrass, Large [1, 18]: 0
- Crabgrass, Large plant response rating [1, 19]: 35
- Crabgrass, Large plant response rating [1, 20]: 5
- Foxtail, Giant plant response rating [2, 13]: 10
- Plant response rating, Foxtail, Giant [2, 14]: 40
- Plant response rating, Foxtail, Giant [2, 15]: 35
- Plant response rating, Foxtail, Giant [2, 16]: 5
- Plant response rating, Foxtail, Giant [2, 17]: 15
- Plant response rating, Foxtail, Giant [2, 18]: 55
- Foxtail, Giant plant response rating [2, 19]: 85
- Foxtail, Giant plant response rating [2, 20]: 15
- Barnyardgrass plant response rating [3, 13]: 5
- Plant response rating, Barnyardgrass [3, 14]: 10
- Plant response rating, Barnyardgrass [3, 15]: 15
- Plant response rating, Barnyardgrass [3, 16]: 5
- Plant response rating, Barnyardgrass [3, 17]: 5
- Plant response rating, Barnyardgrass [3, 18]: 5
- Barnyardgrass plant response rating [3, 19]: 60
- Barnyardgrass plant response rating [3, 20]: 5
- Waterhemp plant response rating [4, 13]: 75
- Plant response rating, Waterhemp [4, 14]: 75
- Plant response rating, Waterhemp [4, 15]: 90
- Plant response rating, Waterhemp [4, 17]: 80
- Plant response rating, Waterhemp [4, 18]: 100
- Waterhemp plant response rating [4, 19]: 100
- Waterhemp plant response rating [4, 20]: 70
- Wheat plant response rating [5, 13]: 0
- Plant response rating, Wheat [5, 14]: 5
- Plant response rating, Wheat [5, 15]: 0
- Plant response rating, Wheat [5, 17]: 0
- Plant response rating, Wheat [5, 18]: 0
- Wheat plant response rating [5, 19]: 0
- Wheat plant response rating [5, 20]: 0
- Soybean plant response rating [6, 13]: 0
- Plant response rating, Soybean [6, 14]: 0
- Plant response rating, Soybean [6, 15]: 0
- Plant response rating, Soybean [6, 17]: 0
- Plant response rating, Soybean [6, 18]: 0
- Soybean plant response rating [6, 19]: 5
- Soybean plant response rating [6, 20]: 0
- Lambsquarters plant response rating [7, 13]: 70
- Plant response rating, Lambsquarters [7, 14]: 90
- Plant response rating, Lambsquarters [7, 15]: 90
- Plant response rating, Lambsquarters [7, 16]: 25
- Plant response rating, Lambsquarters [7, 17]: 45
- Plant response rating, Lambsquarters [7, 18]: 90
- Lambsquarters plant response rating [7, 19]: 90
- Lambsquarters plant response rating [7, 20]: 85
- Galium plant response rating [8, 13]: 90
- Plant response rating, Galium [8, 14]: 95
- Plant response rating, Galium [8, 15]: 95
- Plant response rating, Galium [8, 16]: 90
- Plant response rating, Galium [8, 17]: 90
- Plant response rating, Galium [8, 18]: 95
- Galium plant response rating [8, 19]: 95
- Galium plant response rating [8, 20]: 90
- Ragweed plant response rating [9, 13]: 70
- Plant response rating, Ragweed [9, 14]: 90
- Plant response rating, Ragweed [9, 15]: 100
- Plant response rating, Ragweed [9, 16]: 30
- Plant response rating, Ragweed [9, 17]: 75
- Plant response rating, Ragweed [9, 18]: 90
- Ragweed plant response rating [9, 19]: 100
- Ragweed plant response rating [9, 20]: 75
- Johnsongrass plant response rating [10, 13]: 5
- Plant response rating, Johnsongrass [10, 14]: 5
- Plant response rating, Johnsongrass [10, 15]: 5
- Plant response rating, Johnsongrass [10, 16]: 0
- Plant response rating, Johnsongrass [10, 17]: 0
- Plant response rating, Johnsongrass [10, 18]: 0
- Johnsongrass plant response rating [10, 19]: 0
- Johnsongrass plant response rating [10, 20]: 5
- Nutsedge, Yellow plant response rating [11, 13]: 35
- Plant response rating, Nutsedge, Yellow [11, 14]: 65
- Plant response rating, Nutsedge, Yellow [11, 15]: 65
- Plant response rating, Nutsedge, Yellow [11, 16]: 55
- Plant response rating, Nutsedge, Yellow [11, 17]: 45
- Plant response rating, Nutsedge, Yellow [11, 18]: 70
- Nutsedge, Yellow plant response rating [11, 19]: 70
- Nutsedge, Yellow plant response rating [11, 20]: 50
- Oilseed Rape plant response rating [12, 13]: 5
- Plant response rating, Oilseed Rape [12, 14]: 90
- Plant response rating, Oilseed Rape [12, 15]: 75
- Plant response rating, Oilseed Rape [12, 16]: 0
- Plant response rating, Oilseed Rape [12, 17]: 5
- Plant response rating, Oilseed Rape [12, 18]: 5
- Oilseed Rape plant response rating [12, 19]: 80
- Oilseed Rape plant response rating [12, 20]: 15
